Active and inactive are the calls of the source. No cut-off for these calls is given here.
Legend:
[1] = target: T1, Neuropeptide Y receptor type 5 (Homo sapiens, UniProt Q15761); assay: Binding affinity to human NPY Y5 receptor transfected in mouse LMtk cells; type: cell-based
T1 sequence (Q15761 whole entry): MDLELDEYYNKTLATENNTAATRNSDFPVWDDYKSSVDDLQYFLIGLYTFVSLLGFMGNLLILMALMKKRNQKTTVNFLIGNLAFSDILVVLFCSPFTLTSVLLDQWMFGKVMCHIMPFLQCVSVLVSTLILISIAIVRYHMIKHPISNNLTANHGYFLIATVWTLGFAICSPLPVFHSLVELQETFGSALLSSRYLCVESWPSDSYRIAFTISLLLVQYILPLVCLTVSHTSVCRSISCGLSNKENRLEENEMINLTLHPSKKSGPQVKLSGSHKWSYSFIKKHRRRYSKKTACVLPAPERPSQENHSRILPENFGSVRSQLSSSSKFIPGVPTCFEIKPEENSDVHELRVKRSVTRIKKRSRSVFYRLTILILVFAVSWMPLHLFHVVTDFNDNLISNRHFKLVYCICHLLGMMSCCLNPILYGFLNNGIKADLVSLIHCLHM

[2] = target: T2, Neuropeptide Y receptor type 1 (Homo sapiens, UniProt P25929); assay: Binding affinity to NPY Y1 receptor
T2 sequence (P25929 whole entry): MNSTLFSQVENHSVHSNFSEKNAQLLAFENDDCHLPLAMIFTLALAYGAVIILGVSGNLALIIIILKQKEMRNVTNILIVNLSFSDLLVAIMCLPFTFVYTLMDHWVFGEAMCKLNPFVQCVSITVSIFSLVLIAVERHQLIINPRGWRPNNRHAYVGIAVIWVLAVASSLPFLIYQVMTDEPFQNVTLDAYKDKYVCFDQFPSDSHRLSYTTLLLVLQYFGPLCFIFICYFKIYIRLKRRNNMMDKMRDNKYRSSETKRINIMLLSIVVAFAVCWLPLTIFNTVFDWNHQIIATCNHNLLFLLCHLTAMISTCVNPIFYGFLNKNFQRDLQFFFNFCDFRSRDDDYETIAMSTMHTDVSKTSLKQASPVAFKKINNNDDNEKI

[3] = target: T3, Neuropeptide Y receptor type 2 (Homo sapiens, UniProt P49146); assay: Binding affinity to NPY Y2 receptor
T3 sequence (P49146 whole entry): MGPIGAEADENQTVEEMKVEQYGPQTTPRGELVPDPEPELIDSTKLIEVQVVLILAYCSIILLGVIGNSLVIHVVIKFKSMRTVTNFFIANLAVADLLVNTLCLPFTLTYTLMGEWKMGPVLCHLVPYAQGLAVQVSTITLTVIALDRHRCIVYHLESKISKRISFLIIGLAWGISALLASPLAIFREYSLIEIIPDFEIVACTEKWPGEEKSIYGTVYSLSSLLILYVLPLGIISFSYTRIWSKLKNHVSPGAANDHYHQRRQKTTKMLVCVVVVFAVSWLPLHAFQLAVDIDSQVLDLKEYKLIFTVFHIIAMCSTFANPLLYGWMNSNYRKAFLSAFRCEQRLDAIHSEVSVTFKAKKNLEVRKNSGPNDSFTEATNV

[4] = target: Neuropeptide Y receptor type 4 (Homo sapiens, UniProt P50391); assay: Binding affinity to NPY Y4 receptor
[5] = target: T1, Neuropeptide Y receptor type 5; assay: Antagonist activity at human NPY Y5 receptor transfected in mouse LMtk cells assessed as inhibition of neuropeptide Y-induced increase in […] Ca2+ level; type: functional, cell-based
Rattus norvegicus [6] = assay: Plasma concentration in rat at 10 mg/kg, po after 2 hrs; type: ADME, organism-based; parameters: dose 10 mg/kg, route oral
Rattus norvegicus [7] = assay: Plasma concentration in rat at 10 mg/kg, po after 4 hrs; type: ADME, organism-based; parameters: dose 10 mg/kg, route oral
in vivo = settings: rat, brain and plasma, po, 10 mg/kg
Description: Ratio of drug level in brain to plasma in rat at 10 mg/kg, po after 2 hrs

Rattus norvegicus [8] = assay: Suppression of intracerebroventricular injected D-trp34NPY-induced food intake in SD rat at 10 mg/kg, po administered 2 hrs prior to ICV injection measured after 2 hrs of D-trp34NPY challenge; type: functional, organism-based; parameters: dose 10 mg/kg

Chain of Neuropeptide Y receptor type 4 (P50391 whole entry): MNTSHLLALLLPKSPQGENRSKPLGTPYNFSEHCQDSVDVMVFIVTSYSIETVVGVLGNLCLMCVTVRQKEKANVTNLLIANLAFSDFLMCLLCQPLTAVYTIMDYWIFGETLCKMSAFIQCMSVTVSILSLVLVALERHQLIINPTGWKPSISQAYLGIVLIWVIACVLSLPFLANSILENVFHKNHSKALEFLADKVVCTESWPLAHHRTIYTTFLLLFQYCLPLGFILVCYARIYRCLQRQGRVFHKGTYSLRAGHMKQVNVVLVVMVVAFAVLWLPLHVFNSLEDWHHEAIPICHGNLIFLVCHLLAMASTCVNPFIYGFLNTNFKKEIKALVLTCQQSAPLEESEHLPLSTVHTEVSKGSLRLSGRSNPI

IC50 [1] [nM] | Structure (SMILES) | other results
110 | NC(=O)c1ccc2nc(N3CCC4(CC3)OC(=O)c3ccccc34)[nH]c2c1 | 
1400 | O=C1O[C@]2(CC[C@@H](c3nc4cccnc4[nH]3)CC2)c2ccccc21 | 
1.8 | CC(C)Cc1ccc2nc(N3CCC4(CC3)OC(=O)c3ccccc34)[nH]c2c1 | 
2 | CCOC(=O)c1ccc2nc(N3CCC4(CC3)OC(=O)c3ccccc34)[nH]c2c1 | 
6.6 | O=C1OC2(CCN(c3nc4cc(Cl)ccc4[nH]3)CC2)c2ccccc21 | IC50 [2]: > 10000 nM; IC50 [3]: > 10000 nM; IC50 [4]: > 10000 nM; IC50 [5]: 1.2 nM; Concentration (Rattus norvegicus [6]): 27.8 µM; plasma concentration (Rattus norvegicus [7]): 25.6 µM
17 | O=C1OC2(CCN(c3nc4c(-c5ccccc5)cccc4[nH]3)CC2)c2ccccc21 | 
2.7 | COC(=O)c1ccc2[nH]c(N3CCC4(CC3)OC(=O)c3ccccc34)nc2c1 | IC50 [2]: > 10000 nM; IC50 [3]: > 10000 nM; IC50 [4]: > 10000 nM; IC50 [5]: 1.5 nM; Concentration (Rattus norvegicus [6]): 3.2 µM; plasma concentration (Rattus norvegicus [7]): 0.1 µM; Kp at 2 h (in vivo): 0.08
1.6 | O=C1OC2(CCN(c3nc4cc(Cl)c(Cl)cc4[nH]3)CC2)c2ccccc21 | IC50 [2]: > 10000 nM; IC50 [3]: > 10000 nM; IC50 [4]: > 10000 nM; IC50 [5]: 1.4 nM; Concentration (Rattus norvegicus [6]): 2.9 µM; plasma concentration (Rattus norvegicus [7]): 4.6 µM
130 | CC(=O)Nc1ccc2nc(N3CCC4(CC3)OC(=O)c3ccccc34)[nH]c2c1 | 
2.4 | O=C1OC2(CCN(c3nc4cc(-c5ccccc5)ccc4[nH]3)CC2)c2ccccc21 | IC50 [2]: > 10000 nM; IC50 [3]: > 10000 nM; IC50 [4]: > 10000 nM; IC50 [5]: 1.8 nM; Concentration (Rattus norvegicus [6]): 1.8 µM; plasma concentration (Rattus norvegicus [7]): 1.3 µM; Kp at 2 h (in vivo): 0.35
9.3 | O=C1OC2(CCN(c3nc4cc5c(cc4[nH]3)OCO5)CC2)c2ccccc21 | 
4.8 | O=C1OC2(CCN(c3nc4cc(F)c(F)cc4[nH]3)CC2)c2ccccc21 | 
58 | CN(C)C(=O)c1ccc2nc(N3CCC4(CC3)OC(=O)c3ccccc34)[nH]c2c1 | 
36 | Cc1ccc2[nH]c(N3CCC4(CC3)OC(=O)c3ccccc34)nc2c1 | 
140 | O=C1OC2(CCN(c3nc4ccccc4[nH]3)CC2)c2ccccc21 | 
1600 | O=C1OC2(CCN(c3nc4cccnc4[nH]3)CC2)c2ccccc21 | 
250 | COc1cccc2[nH]c(N3CCC4(CC3)OC(=O)c3ccccc34)nc12 | 
2.2 | O=C1OC2(CCN(c3nc4cc5c(cc4[nH]3)OC(F)(F)O5)CC2)c2ccccc21 | 
10 | O=C1OC2(CCN(c3nc4ccc(Br)cc4[nH]3)CC2)c2ccccc21 | 

IC50 [1] [nM] | Structure (SMILES) | other results
28 | O=C1OC2(CCN(c3nc4cc(F)ccc4[nH]3)CC2)c2ccccc21 | 
19 | N#Cc1ccc2[nH]c(N3CCC4(CC3)OC(=O)c3ccccc34)nc2c1 | 
500 | O=C1OC2(CCN(c3nc4c(F)cccc4[nH]3)CC2)c2ccccc21 | 
85 | CS(=O)(=O)c1ccc2[nH]c(N3CCC4(CC3)OC(=O)c3ccccc34)nc2c1 | 
51 | O=C1OC2(CCN(c3nc4cccc(Cl)c4[nH]3)CC2)c2ccccc21 | 
> 10000 | O=C1OC2(CCN(c3nc4ccccc4s3)CC2)c2ccccc21 | 
83 | O=C1OC2(CCN(c3nc4cccc(C(F)(F)F)c4[nH]3)CC2)c2ccccc21 | 
37 | COc1ccc2[nH]c(N3CCC4(CC3)OC(=O)c3ccccc34)nc2c1 | 
> 1000 | CS(=O)(=O)N1CC2(CCN(c3nc4ccccc4[nH]3)CC2)c2ccccc21 | 
91 | O=C1O[C@]2(CC[C@H](c3nc4ncccc4[nH]3)CC2)c2ccccc21 | 
6.7 | O=C1OC2(CCN(c3nc4cc(Cl)c(F)cc4[nH]3)CC2)c2ccccc21 | 
5.7 | O=C1OC2(CCN(c3nc4cc(Cl)cc(Cl)c4[nH]3)CC2)c2ccccc21 | 
9.2 | Cc1cc2nc(N3CCC4(CC3)OC(=O)c3ccccc34)[nH]c2cc1C | 
3.5 | O=C1OC2(CCN(c3nc4cc(C(F)(F)F)ccc4[nH]3)CC2)c2ccccc21 | IC50 [2]: > 10000 nM; IC50 [3]: > 10000 nM; IC50 [4]: > 10000 nM; IC50 [5]: 6.4 nM; Concentration (Rattus norvegicus [6]): 15.3 µM; plasma concentration (Rattus norvegicus [7]): 17.5 µM; Activity (Rattus norvegicus [8]): Active; Kp at 2 h (in vivo): 0.31
20 | CNC(=O)c1ccc2nc(N3CCC4(CC3)OC(=O)c3ccccc34)[nH]c2c1 | 
56 | CS(=O)(=O)Nc1ccc2nc(N3CCC4(CC3)OC(=O)c3ccccc34)[nH]c2c1 | 
74 | Cc1cccc2[nH]c(N3CCC4(CC3)OC(=O)c3ccccc34)nc12 | 
> 1000 | O=C(O)c1ccc2[nH]c(N3CCC4(CC3)OC(=O)c3ccccc34)nc2c1 | 
10 | O=C1OC2(CCN(c3nc4ccc([N+](=O)[O-])cc4[nH]3)CC2)c2ccccc21 | 

Structure (SMILES) | IC50 [1] [nM] | other results
O=C1OC2(CCN(Cc3nc4ccccc4[nH]3)CC2)c2ccccc21 | 4900 | 
